Legend:
[1] = target: Carbonic anhydrase 4 (Homo sapiens, UniProt P22748)
[2] = target: Carbonic anhydrase 1 (Homo sapiens, UniProt P00915)
[3] = test system: Oryctolagus cuniculus; assay: In vivo activity in normotensive rabbits (23.5+/-2.6 mmHg) for the intraocular pressure (IOP) lowering 60 min after topical administration with one drop of Carbonic anhydrase inhibitor at a pH 7.4; assay type: functional, Eye
[4] = not given; remark: listed apart in the source
[5] = test system: Oryctolagus cuniculus; assay: In vivo activity in normotensive rabbits (23.5+/-2.6 mmHg) for the intraocular pressure (IOP) lowering 90 min after topical administration with one drop of Carbonic anhydrase inhibitor at a pH 7.4; assay type: functional, Eye
[6] = test system: Oryctolagus cuniculus; assay: In vivo activity in normotensive rabbits (23.5+/-2.6 mmHg) for the intraocular pressure (IOP) lowering 30 min after topical administration with one drop of Carbonic anhydrase inhibitor at a pH 7.4; assay type: functional, Eye

Carbonic anhydrase 4, sequence (P22748 whole entry): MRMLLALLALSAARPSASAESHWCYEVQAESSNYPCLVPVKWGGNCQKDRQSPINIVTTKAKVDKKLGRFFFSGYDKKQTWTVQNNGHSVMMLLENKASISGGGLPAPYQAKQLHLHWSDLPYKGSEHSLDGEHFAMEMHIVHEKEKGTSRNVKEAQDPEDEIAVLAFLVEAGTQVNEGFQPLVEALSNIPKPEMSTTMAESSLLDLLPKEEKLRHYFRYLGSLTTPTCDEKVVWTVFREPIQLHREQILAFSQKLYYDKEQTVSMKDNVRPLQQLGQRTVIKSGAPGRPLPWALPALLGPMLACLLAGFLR
Carbonic anhydrase 1, sequence (P00915 whole entry): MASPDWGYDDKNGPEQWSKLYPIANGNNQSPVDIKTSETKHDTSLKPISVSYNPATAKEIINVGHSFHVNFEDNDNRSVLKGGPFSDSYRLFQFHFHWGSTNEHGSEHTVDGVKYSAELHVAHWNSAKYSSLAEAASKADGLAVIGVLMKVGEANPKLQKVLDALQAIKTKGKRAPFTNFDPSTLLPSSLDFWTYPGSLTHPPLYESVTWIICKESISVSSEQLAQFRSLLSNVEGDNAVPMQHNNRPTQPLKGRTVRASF

- Kin: 8.1 h⁻¹
- Ki [1]: 28 nM
- Ki [2]: 55 nM
- Kin [4]: 4.3 h⁻¹
SMILES: NS(=O)(=O)c1nnc(NC(=O)CN(CCN(CCN(CC(=O)O)CC(=O)O)CC(=O)O)CC(=O)O)s1
- Change in IOP [3]: 6.8 mmHg
- Change in IOP [5]: 4.5 mmHg
- Change in IOP [6]: 3.1 mmHg

From ChEMBL document CHEMBL1134204, “Carbonic anhydrase inhibitors: synthesis of sulfonamides incorporating dtpa tails and of their zinc complexes with powerful topical antiglaucoma properties” (Bioorg Med Chem Lett, 2001)
